Measurements reported in patent EP2966448B1, “METHOD FOR THE PREDICTION OR PROGNOSIS OF THE RESPONSE OF A HUMAN SUBJECT SUFFERING FROM CANCER TO TREATMENT WITH AN ANTAGONIST OF THE NK1 RECEPTOR” (priority 2013, dated 2014).
Like-named read-outs stand apart in the source and are kept apart here.

Key:
[1] = test system: human primary tumor cells; assay: Inhibition of primary tumor cell cultures vs absence or presence of ERK  protein (Example 3; tumor type per table line); format: cell-based; conditions: for Percentage of inhibition of cell cultures: 100 micromolar
Description: (§1) Cell cultures. […] Briefly, small pieces of the tumors were digested into a hyaluronidase solution (Sigma-Aldrich, USA) at a concentration of 1 mg/ml during 15 minutes at 37°C, and then they were treated with 6 mg/ml of collagenase type IV (Invitrogen) during 2 hours at 37°C. Consecutively, cells were washed, and resuspended in the DMEM culture medium with high concentration of glucose (Dulbecco's Modified Eagle's Medium, Invitrogen) supplemented with 1% of antibiotics-antimycotics (Invitrogen) and with 1% of sodium pyruvate (Invitrogen), and the cells were seeded in culture slides at a concentration of 10.000 cells per square centimeter. When cells reached confluence, the adherent cells were separated using sterile trypsin at 0,5% (Invitrogen) and they were used among passages 3 and 9. For the assays shown next, tumor cells were seeded on slides at a concentration of 25.000 cells per well. A total of 6 wells containing the tumor cells were used as survival control. […] All the cultures were kept during 48 hours and later on recollected for their analysis.
Consecutively, the cells were placed in cultures in the presence of several antagonists of the NK1 receptor.
In each case it was determined the presence or absence of the downstream effector in the MAP Kinases ERK pathway.
To determine the presence of the ERK protein, it was performed a Western Blot technique, using as primary antibody: Phospho-p44/42 MAPK (Erk1/2) (Thr202/Tyr204) (D13.14.4E) XP® Rabbit mAb (4370, Cell Signalling). To determine the presence of the MEK protein, it was performed the Western Blot technique, using as primary antibody Phospho-MEK1/2 (Ser217/221) (9121, Cell Signalling).
The antibody against NK1 receptor (Table 21) was used at 1/50 concentration. The percentages of inhibition are expressed in percentages of variation in relation to control ± standard deviation.

[2] = test system: Pancreatic carcinoma; assay: Inhibition of primary tumor cell cultures (48 hours) vs NK1 receptor immunostaining (Example 1); format: cell-based; conditions: Homo sapiens, 1 micromolar, read-out: Percentage of inhibition of cell cultures
Description: (§2) Cell cultures. To obtain tumor cells from human primary tumors we used the method described in De Bari et al. (De Bari et al. 2001). Briefly, small pieces of the tumors were digested into a hyaluronidase solution (Sigma-Aldrich, USA) at a concentration of 1 mg/ml during 15 minutes at 37°C, and then they were treated with 6 mg/ml of collagenase type IV (Invitrogen) during 2 hours at 37°C. Consecutively, cells were washed, and resuspended in the DMEM culture medium with high concentration of glucose (Dulbecco's Modified Eagle's Medium, Invitrogen) supplemented with 1% of antibiotics-antimycotics (Invitrogen) and with 1% of sodium pyruvate (Invitrogen), and the cells were seeded in culture slides at a concentration of 10.000 cells per square centimeter. When cells reached confluence, the adherent cells were separated using sterile trypsin at 0,5% (Invitrogen) and they were used among passages 3 and 9. For the assays shown next, tumor cells were seeded on slides at a concentration of 25.000 cells per well. A total of 6 wells containing the tumor cells were used as survival control. […] All the cultures were kept during 48 hours and later on recollected for their analysis.
(§3) Immunohistochemistry techniques. The presence of NK1 receptors was also analyzed using immunohistochemistry techniques. Briefly, a sample of each of the cultures of the cell lines used in the present invention, was centrifuged (5 minutes at 1.500 rpm) and the pellet obtained was dehydrated using increasing concentrations of ethanol and, finally, xylol. Then, said dehydrated samples were embedded in paraffin, creating a block of cells. Such paraffin blocks were cut with a microtome at 5 microns thickness, and were placed on microscope slides adequate to perform immunohistochemistry techniques. Consecutively, they were de-paraffinized by immersing them in xylol, to be finally hydrated using a solution containing decreasing concentrations of ethanol, and finally submerged them into water. […] After this, the samples were left to cool down at room temperature for 10 minutes. The endogenous peroxidase activity was blocked with 3% peroxide of hydrogen for 30 minutes at room temperature. After washing the samples with 0.05 M of Tris buffer, they were incubated with 10% non-immune pork serum at for 30 minutes at room temperature. To analyze the expression of NK1 receptors, the cellular samples were incubated in the presence of anti-NK1 antibodies (S8305, Sigma-Aldrich) diluted 1:1000, overnight at 4°C. Afterwards, the samples were washed in Tris buffer 0.05 M at room temperature. The next step was the addition of Envision System-HRP (Dako) reagents for 30 minutes at room temperature. Then, the samples were washed again in Tris buffer 0.05 M and the immunoreactivity was visualized through light microscopy with a chromogenic solution containing 3,3'-Diaminobenzidine (DAB+; Dako, USA). To differentiate the cell nuclei, they were slightly stained with hematoxylin. As negative control, it was used samples not incubated with the primary antibody anti-NK1, which was replaced by non-immune serum. All the samples were evaluated.
(§4) To value the immunostaining in each of the cases six cuts were performed to be analyzed by the immunohistochemistry technique. In each of the six cuts, it was counted cells in 20 fields (magnification 400x) using an Olympus microscope (model CX31). In each field it was counted the total number of cells and the number of cells presenting immunostaining, calculating afterwards the percentage of cells which presented immunostaining.

[3] = test system: Carcinoma of the uterine cervix; assay: as above; format: cell-based; conditions: Homo sapiens, 1 micromolar, read-out: Percentage of inhibition of cell cultures
Description: as §2, §3, §4

[4] = test system: Colon carcinoma (Adenocarcinoma); assay: Inhibition of primary tumor cell cultures vs Kras mutation (Example 2); format: cell-based, human; conditions: Homo sapiens, 100 micromolar, read-out: Percentage of inhibition of cell cultures
Description: as §2
(§5) In each case the presence or not of mutations in K-ras gene was determined.
(§6) To determine the existence of mutations in the K-ras gene DNA from cancer tumor cells was extracted from samples obtained from the different cancer tumor cells, using DNA extraction kits from Takara (Madison, WI, US) or Ambion (Huntingdon, Cambridgeshire, United Kingdom), following the manufacturer's instructions, and as it has been previously published (Di Fiore F, et al. 2007). Consecutively it was analyzed by sequencing the exon 2 of the KRAS gene, , by means of PCR amplification from previously extracted cancer tumor DNA, using the following sense primer (SEQ ID NO. 15): 5'-[sequence]-3' and anti-sense primer (SEQ ID NO. 16): 5'-[sequence]-3'. After the purification using the Qiagen extraction kit, the PCR products were sequenced using the Big Dye Terminator Kit V3.1 (Applied Biosystems, Foster City, CA, U.S.) and an ABI Prism 377 or 3100 DNA sequencer (Applied Biosystems). The presence of a heterozygous mutation in the KRAS gene in cancer tumor cells of the cultures was defined as the appearance of a mutant peak of a height of at least a third of the wild type. All the sequence analysis were executed at least twice in two independent PCR.
(§7) The antibody against NK1 receptor (Table 16) was used at 1/50 concentration. The percentages of inhibition are expressed in percentage of variation in relation to control ± standard deviation.

[5] = test system: Non Hodgkin Lymphoma T (diffuse T cell lymphoma); assay: as above; format: cell-based, human; conditions: Homo sapiens, T-cell, 100 micromolar, read-out: Percentage of inhibition of cell cultures
Description: as §2, §5, §6
(§8) The percentages of inhibition are expressed in percentage of variation in relation to control ± standard deviation.

[6] = test system: Non Hodgkin Lymphoma B (diffuse B cell lymphoma); assay: as above; format: cell-based, human; conditions: Homo sapiens, B-cell, 100 micromolar, read-out: Percentage of inhibition of cell cultures
Description: as §2, §5, §6, §8

[7] = test system: Thyroid carcinoma (follicular carcinoma); assay: as above; format: cell-based, human; conditions: Homo sapiens, 100 micromolar, read-out: Percentage of inhibition of cell cultures
Description: To obtain tumor cells from human primary tumors we used the method described in De Bari et al. (De Bari et al. 2001). Briefly, small pieces of the tumors were digested into a hyaluronidase solution (Sigma-Aldrich, USA) at a concentration of 1 mg/ml during 15 minutes at 37°C, and then they were treated with 6 mg/ml of collagenase type IV (Invitrogen) during 2 hours at 37°C. Consecutively, cells were washed, and resuspended in the DMEM culture medium with high concentration of glucose (Dulbecco's Modified Eagle's Medium, Invitrogen) supplemented with 1% of antibiotics-antimycotics (Invitrogen) and with 1% of sodium pyruvate (Invitrogen), and the cells were seeded in culture slides at a concentration of 10.000 cells per square centimeter. When cells reached confluence, the adherent cells were separated using sterile trypsin at 0,5% (Invitrogen) and they were used among passages 3 and 9. For the assays shown next, tumor cells were seeded on slides at a concentration of 25.000 cells per well. A total of 6 wells containing the tumor cells were used as survival control. […] All the cultures were kept during 48 hours and later on recollected for their analysis.
as §5, §6, §7

[8] = test system: Endometrium carcinoma; assay: as above; format: cell-based, human; conditions: Homo sapiens, 100 micromolar, read-out: Percentage of inhibition of cell cultures
Description: as §1, §5, §6, §7

[9] = test system: Ewing Sarcoma; assay: Inhibition of primary tumor cell cultures (48 hours) vs NK1 receptor immunostaining (Example 1); format: cell-based; conditions: Homo sapiens, 1 micromolar, read-out: Percentage of inhibition of cell cultures
Description: as §2, §3, §4

[10] = NK1 receptor immunostaining Group 1 (less than 20% of the cells)
[11] = NK1 receptor immunostaining Group 2 (20-80% of the cells)
[12] = NK1 receptor immunostaining Group 3 (more than 80% of the cells)
[13] = NK1 receptor immunostaining Intensity grade 1
[14] = NK1 receptor immunostaining Intensity grade 2
[15] = NK1 receptor immunostaining Intensity grade 3
[16] = Cases with Kras non-mutated (wild type)

CC(=O)N1CCN([C@H]2CCN(C(=O)N(C)[C@H](C)c3cc(C(F)(F)F)cc(C(F)(F)F)c3)[C@@H](c3ccc(F)cc3C)C2)CC1 [Casopitant]
Percentage of inhibition of cell cultures ([1]; Breast carcinoma (ductal adenocarcinoma), cases with presence of ERK): 93±4 percentage | Percentage of inhibition of cell cultures ([1]; Breast carcinoma (ductal adenocarcinoma), cases without presence of ERK): 26±4 percentage | Percentage of inhibition of cell cultures ([1]; Burkitt Lymphoma, cases with presence of ERK): 97±5 percentage | Percentage of inhibition of cell cultures ([1]; Burkitt Lymphoma, cases without presence of ERK): 28±6 percentage | Percentage of inhibition of cell cultures ([1]; Carcinoma of the uterine cervix (Squamous cell carcinoma), cases with presence of ERK): 93±4 percentage | Percentage of inhibition of cell cultures ([1]; Carcinoma of the uterine cervix (Squamous cell carcinoma), cases without presence of ERK): 28±3 percentage | Percentage of inhibition of cell cultures ([1]; Colon carcinoma (Adenocarcinoma), cases with presence of ERK): 95±3 percentage | Percentage of inhibition of cell cultures ([1]; Colon carcinoma (Adenocarcinoma), cases without presence of ERK): 24±3 percentage | Percentage of inhibition of cell cultures ([1]; Endometrium carcinoma, cases with presence of ERK): 93±5 percentage | Percentage of inhibition of cell cultures ([1]; Endometrium carcinoma, cases without presence of ERK): 29±2 percentage | Percentage of inhibition of cell cultures ([1]; Gastric carcinoma (Adenocarcinoma), cases with presence of ERK): 96±4 percentage | Percentage of inhibition of cell cultures ([1]; Gastric carcinoma (Adenocarcinoma), cases without presence of ERK): 25±6 percentage | Percentage of inhibition of cell cultures ([1]; Glioma (astrocytoma), cases with presence of ERK): 93±4 percentage | Percentage of inhibition of cell cultures ([1]; Glioma (astrocytoma), cases without presence of ERK): 28±3 percentage | Percentage of inhibition of cell cultures ([1]; Lung carcinoma (non small cell lung carcinoma), cases with presence of ERK): 95±7 percentage | Percentage of inhibition of cell cultures ([1]; Lung carcinoma (non small cell lung carcinoma), cases without presence of ERK): 27±5 percentage | Percentage of inhibition of cell cultures ([1]; Lung carcinoma (small cell lung carcinoma), cases with presence of ERK): 94±5 percentage | Percentage of inhibition of cell cultures ([1]; Lung carcinoma (small cell lung carcinoma), cases without presence of ERK): 29±4 percentage | Percentage of inhibition of cell cultures ([1]; Melanoma (Nodular Melanoma), cases with presence of ERK): 96±5 percentage | Percentage of inhibition of cell cultures ([1]; Melanoma (Nodular Melanoma), cases without presence of ERK): 27±5 percentage | Percentage of inhibition of cell cultures ([1]; Non Hodgkin Lymphoma B (diffuse B cell lymphoma), cases with presence of ERK): 97±5 percentage | Percentage of inhibition of cell cultures ([1]; Non Hodgkin Lymphoma B (diffuse B cell lymphoma), cases without presence of ERK): 28±4 percentage | Percentage of inhibition of cell cultures ([1]; Non Hodgkin Lymphoma T (diffuse T cell lymphoma), cases with presence of ERK): 98±4 percentage | Percentage of inhibition of cell cultures ([1]; Non Hodgkin Lymphoma T (diffuse T cell lymphoma), cases without presence of ERK): 29±5 percentage | Percentage of inhibition of cell cultures ([1]; Ovarian carcinoma (Adenocarcinoma), cases with presence of ERK): 92±6 percentage | Percentage of inhibition of cell cultures ([1]; Ovarian carcinoma (Adenocarcinoma), cases without presence of ERK): 28±5 percentage | Percentage of inhibition of cell cultures ([1]; Pancreatic carcinoma (Adenocarcinoma), cases with presence of ERK): 94±2 percentage | Percentage of inhibition of cell cultures ([1]; Pancreatic carcinoma (Adenocarcinoma), cases without presence of ERK): 23±4 percentage | Percentage of inhibition of cell cultures ([1]; Prostate carcinoma, cases with presence of ERK): 94±5 percentage | Percentage of inhibition of cell cultures ([1]; Prostate carcinoma, cases without presence of ERK): 27±4 percentage | Percentage of inhibition of cell cultures ([1]; Renal cell carcinoma (clear cell renal cell carcinoma), cases with presence of ERK): 94±3 percentage | Percentage of inhibition of cell cultures ([1]; Renal cell carcinoma (clear cell renal cell carcinoma), cases without presence of ERK): 27±3 percentage | Percentage of inhibition of cell cultures ([1]; Thyroid carcinoma (follicular carcinoma), cases with presence of ERK): 96±6 percentage | Percentage of inhibition of cell cultures ([1]; Thyroid carcinoma (follicular carcinoma), cases without presence of ERK): 26±4 percentage | Percentage of inhibition of cell cultures ([1]; Thyroid carcinoma (papillary carcinoma), cases with presence of ERK): 97±4 percentage | Percentage of inhibition of cell cultures ([1]; Thyroid carcinoma (papillary carcinoma), cases without presence of ERK): 28±3 percentage | Percentage of inhibition of cell cultures ([1]; Undifferentiated Pleomorphic Sarcoma (malignant fibrous histiocytoma grade 3), cases with presence of ERK): 95±3 percentage | Percentage of inhibition of cell cultures ([1]; Undifferentiated Pleomorphic Sarcoma (malignant fibrous histiocytoma grade 3), cases without presence of ERK): 26±4 percentage | Percentage of inhibition of cell cultures ([1]; Urinary bladder carcinoma (transitional cell carcinoma), cases with presence of ERK): 98±2 percentage | Percentage of inhibition of cell cultures ([1]; Urinary bladder carcinoma (transitional cell carcinoma), cases without presence of ERK): 29±4 percentage | inhibition of cell proliferation ([1]; cancer cell cultures that show more presence of ERK, compared, non-peptidic antagonists 100 micromolar, antibody 1/50): higher inhibition | inhibition at 1 µM [2, 10]: 10 ± 4% | inhibition at 1 µM [2, 11]: 45 ± 2% | inhibition at 1 µM [2, 12]: 92 ± 4% | inhibition at 1 µM [2, 13]: 33 ± 5% | inhibition at 1 µM [2, 14]: 53 ± 3% | inhibition at 1 µM [2, 15]: 93 ± 1% | inhibition at 1 µM [3, 10]: 16 ± 3% | inhibition at 1 µM [3, 11]: 47 ± 4% | inhibition at 1 µM [3, 12]: 93 ± 3% | inhibition at 1 µM [3, 13]: 33 ± 3% | inhibition at 1 µM [3, 14]: 53 ± 3% | inhibition at 1 µM [3, 15]: 92 ± 2% | inhibition at 100 µM ([4]; Cases with Kras mutated): 32 ± 4% | inhibition at 100 µM [4, 16]: 94 ± 6% | inhibition at 100 µM ([5]; Cases with Kras mutated): 26 ± 4% | inhibition at 100 µM [5, 16]: 96 ± 5% | inhibition at 100 µM ([6]; Cases with Kras mutated): 26 ± 3% | inhibition at 100 µM [6, 16]: 95 ± 4% | inhibition at 100 µM ([7]; Cases with Kras mutated): 26 ± 4% | inhibition at 100 µM [7, 16]: 96 ± 4% | inhibition at 100 µM ([8]; Cases with Kras mutated): 28 ± 2% | inhibition at 100 µM [8, 16]: 94 ± 4% | inhibition at 1 µM [9, 10]: 15 ± 2% | inhibition at 1 µM [9, 11]: 47 ± 5% | inhibition at 1 µM [9, 12]: 93 ± 5% | inhibition at 1 µM [9, 13]: 33 ± 4% | inhibition at 1 µM [9, 14]: 54 ± 3% | inhibition at 1 µM [9, 15]: 92 ± 4%
